# Reference: PMC4685510, “A Cell Biologist’s Field Guide to Aurora Kinase Inhibitors” (Frontiers in Oncology, 2015)
# Tests used:
# Assay in all cases: biochemical
# Format in all cases: biochemical
# [1] = molecular target: T1, 363 human kinases (including Aurora A/B/C) (Homo sapiens, UniProt Q86SG6); conditions: NEK8; for remaining activity at 0.1 µM: 100 nM; for remaining activity at 0.1 µM / remaining activity at 0.5 µM: read-out: % Enzyme Activity (relative to DMSO controls)
# T1 sequence (Q86SG6 1-692): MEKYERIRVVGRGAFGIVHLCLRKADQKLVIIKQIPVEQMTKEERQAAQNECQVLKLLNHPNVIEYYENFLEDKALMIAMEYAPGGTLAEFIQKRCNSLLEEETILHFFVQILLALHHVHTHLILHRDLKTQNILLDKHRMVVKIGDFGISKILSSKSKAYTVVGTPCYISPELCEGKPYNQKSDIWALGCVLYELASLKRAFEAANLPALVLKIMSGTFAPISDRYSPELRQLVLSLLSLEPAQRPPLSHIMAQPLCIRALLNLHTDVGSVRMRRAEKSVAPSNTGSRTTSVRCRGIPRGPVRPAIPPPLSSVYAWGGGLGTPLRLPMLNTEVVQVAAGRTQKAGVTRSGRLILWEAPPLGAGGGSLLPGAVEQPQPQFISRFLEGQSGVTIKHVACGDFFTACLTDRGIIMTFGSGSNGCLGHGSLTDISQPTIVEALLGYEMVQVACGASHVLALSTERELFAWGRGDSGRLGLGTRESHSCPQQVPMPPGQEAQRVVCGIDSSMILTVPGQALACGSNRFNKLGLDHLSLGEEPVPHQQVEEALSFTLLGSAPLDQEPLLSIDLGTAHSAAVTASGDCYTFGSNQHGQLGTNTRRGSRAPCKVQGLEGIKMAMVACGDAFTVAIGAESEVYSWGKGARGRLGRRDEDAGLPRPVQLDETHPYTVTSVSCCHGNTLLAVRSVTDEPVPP
# Excerpt: (§1) However, the Aurora A/B selectivity ratios derived from our in vitro and in vivo data can be compared to prioritize inhibitors.
# [2] = molecular target: 363 human kinases (including Aurora A/B/C) (Homo sapiens, UniProt Q9Y6E0); conditions: MST3/STK24; for remaining activity at 0.1 µM: 100 nM; for remaining activity at 0.1 µM / remaining activity at 0.5 µM: read-out: % Enzyme Activity (relative to DMSO controls)
# Excerpt: as §1
# [3] = molecular target: 363 human kinases (including Aurora A/B/C) (Homo sapiens, UniProt Q9BUB5); conditions: MNK1; for remaining activity at 0.1 µM: 100 nM; for remaining activity at 0.1 µM / remaining activity at 0.5 µM: read-out: % Enzyme Activity (relative to DMSO controls)
# Excerpt: as §1
# [4] = molecular target: 363 human kinases (including Aurora A/B/C) (Homo sapiens, UniProt Q86Z02); conditions: HIPK1; for remaining activity at 0.1 µM: 100 nM; for remaining activity at 0.1 µM / remaining activity at 0.5 µM: read-out: % Enzyme Activity (relative to DMSO controls)
# Excerpt: as §1
# [5] = molecular target: 363 human kinases (including Aurora A/B/C) (Homo sapiens, UniProt P24723); conditions: PKCeta; for remaining activity at 0.1 µM: 100 nM; for remaining activity at 0.1 µM / remaining activity at 0.5 µM: read-out: % Enzyme Activity (relative to DMSO controls)
# Excerpt: as §1
# [6] = molecular target: 363 human kinases (including Aurora A/B/C) (Homo sapiens, UniProt Q6IQ55); conditions: TTBK2; for remaining activity at 0.1 µM: 100 nM; for remaining activity at 0.1 µM / remaining activity at 0.5 µM: read-out: % Enzyme Activity (relative to DMSO controls)
# Excerpt: as §1
# [7] = molecular target: 363 human kinases (including Aurora A/B/C) (Homo sapiens, UniProt Q9P286); conditions: PAK5; for remaining activity at 0.1 µM: 100 nM; for remaining activity at 0.1 µM / remaining activity at 0.5 µM: read-out: % Enzyme Activity (relative to DMSO controls)
# Excerpt: as §1
# [8] = molecular target: 363 human kinases (including Aurora A/B/C) (Homo sapiens, UniProt P07332); conditions: FES/FPS, [ATP] 50 µM; for remaining activity at 0.1 µM: 100 nM; for remaining activity at 0.1 µM / remaining activity at 0.5 µM: read-out: % Enzyme Activity (relative to DMSO controls)
# Excerpt: as §1
# [9] = molecular target: T2, 363 human kinases (including Aurora A/B/C) (Homo sapiens, UniProt P15735); conditions: PHKg2; for remaining activity at 0.1 µM: 100 nM; for remaining activity at 0.1 µM / remaining activity at 0.5 µM: read-out: % Enzyme Activity (relative to DMSO controls)
# T2 sequence (P15735 1-406): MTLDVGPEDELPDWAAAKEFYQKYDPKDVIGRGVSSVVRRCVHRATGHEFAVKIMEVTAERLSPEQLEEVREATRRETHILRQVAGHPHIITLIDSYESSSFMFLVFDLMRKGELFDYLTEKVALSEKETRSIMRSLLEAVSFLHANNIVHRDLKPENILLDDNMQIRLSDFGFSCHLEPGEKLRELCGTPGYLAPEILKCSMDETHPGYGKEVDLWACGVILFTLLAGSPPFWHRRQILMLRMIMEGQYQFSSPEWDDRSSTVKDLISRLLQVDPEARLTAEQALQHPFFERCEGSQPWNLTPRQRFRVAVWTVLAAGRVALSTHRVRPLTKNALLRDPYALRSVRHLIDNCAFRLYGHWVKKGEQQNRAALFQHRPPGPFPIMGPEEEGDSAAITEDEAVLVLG
# Excerpt: as §1
# [10] = molecular target: T3, 363 human kinases (including Aurora A/B/C) (Homo sapiens, UniProt O60285); conditions: ARK5/NUAK1, [ATP] 30 µM; for remaining activity at 0.1 µM: 100 nM; for remaining activity at 0.1 µM / remaining activity at 0.5 µM: read-out: % Enzyme Activity (relative to DMSO controls)
# T3 sequence (O60285 1-661): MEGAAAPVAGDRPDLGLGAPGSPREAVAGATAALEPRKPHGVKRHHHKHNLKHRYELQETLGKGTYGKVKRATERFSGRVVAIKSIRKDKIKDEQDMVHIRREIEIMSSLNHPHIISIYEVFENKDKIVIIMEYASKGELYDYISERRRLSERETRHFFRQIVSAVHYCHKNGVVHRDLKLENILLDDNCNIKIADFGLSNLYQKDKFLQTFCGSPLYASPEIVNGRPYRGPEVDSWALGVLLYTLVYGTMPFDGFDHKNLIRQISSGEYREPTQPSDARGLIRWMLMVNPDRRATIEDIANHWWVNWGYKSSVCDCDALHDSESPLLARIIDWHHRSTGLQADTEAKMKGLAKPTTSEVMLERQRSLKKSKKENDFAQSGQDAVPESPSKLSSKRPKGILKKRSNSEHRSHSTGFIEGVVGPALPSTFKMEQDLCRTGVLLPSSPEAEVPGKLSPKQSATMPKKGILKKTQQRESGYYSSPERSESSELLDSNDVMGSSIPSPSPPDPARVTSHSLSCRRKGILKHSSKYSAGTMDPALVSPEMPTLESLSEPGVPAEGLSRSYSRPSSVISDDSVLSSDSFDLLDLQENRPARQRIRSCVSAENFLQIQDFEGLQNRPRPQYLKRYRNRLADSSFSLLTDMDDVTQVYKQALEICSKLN
# Excerpt: as §1
# [11] = molecular target: 363 human kinases (including Aurora A/B/C) (Homo sapiens, UniProt O43293); conditions: ZIPK/DAPK3; for remaining activity at 0.1 µM: 100 nM; for remaining activity at 0.1 µM / remaining activity at 0.5 µM: read-out: % Enzyme Activity (relative to DMSO controls)
# Excerpt: as §1
# [12] = molecular target: 363 human kinases (including Aurora A/B/C) (Homo sapiens, UniProt P31749); conditions: AKT1, [ATP] 100 µM; for remaining activity at 0.1 µM: 100 nM; for remaining activity at 0.1 µM / remaining activity at 0.5 µM: read-out: % Enzyme Activity (relative to DMSO controls)
# Excerpt: as §1
# [13] = molecular target: 363 human kinases (including Aurora A/B/C) (Homo sapiens, UniProt P14616); conditions: IRR/INSRR; for remaining activity at 0.1 µM: 100 nM; for remaining activity at 0.1 µM / remaining activity at 0.5 µM: read-out: % Enzyme Activity (relative to DMSO controls)
# Excerpt: as §1
# [14] = molecular target: 363 human kinases (including Aurora A/B/C) (Homo sapiens, UniProt Q96SB4); conditions: SRPK1; for remaining activity at 0.1 µM: 100 nM; for remaining activity at 0.1 µM / remaining activity at 0.5 µM: read-out: % Enzyme Activity (relative to DMSO controls)
# Chain of 363 human kinases (including Aurora A/B/C) (Homo sapiens, UniProt Q96SB4) (Q96SB4 whole entry): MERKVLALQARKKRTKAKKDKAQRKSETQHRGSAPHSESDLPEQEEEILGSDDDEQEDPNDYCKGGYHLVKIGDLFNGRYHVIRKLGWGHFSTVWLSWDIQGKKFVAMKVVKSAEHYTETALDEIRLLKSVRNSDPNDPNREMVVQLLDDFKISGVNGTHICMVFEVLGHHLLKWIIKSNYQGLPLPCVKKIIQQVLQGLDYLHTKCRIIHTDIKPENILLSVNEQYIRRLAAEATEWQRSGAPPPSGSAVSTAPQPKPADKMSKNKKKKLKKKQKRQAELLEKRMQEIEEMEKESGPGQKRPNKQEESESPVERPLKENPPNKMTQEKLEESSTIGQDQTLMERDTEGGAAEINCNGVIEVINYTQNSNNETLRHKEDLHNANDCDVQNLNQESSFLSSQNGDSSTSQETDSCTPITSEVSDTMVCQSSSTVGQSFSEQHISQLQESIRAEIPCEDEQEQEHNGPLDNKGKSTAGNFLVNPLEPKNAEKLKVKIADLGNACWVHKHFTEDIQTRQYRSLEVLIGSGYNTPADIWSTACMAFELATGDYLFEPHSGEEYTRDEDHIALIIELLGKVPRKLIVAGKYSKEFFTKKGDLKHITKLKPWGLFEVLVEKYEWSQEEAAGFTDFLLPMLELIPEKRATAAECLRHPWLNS
# Excerpt: as §1
# Chain of 363 human kinases (including Aurora A/B/C) (Homo sapiens, UniProt O43293) (O43293 whole entry): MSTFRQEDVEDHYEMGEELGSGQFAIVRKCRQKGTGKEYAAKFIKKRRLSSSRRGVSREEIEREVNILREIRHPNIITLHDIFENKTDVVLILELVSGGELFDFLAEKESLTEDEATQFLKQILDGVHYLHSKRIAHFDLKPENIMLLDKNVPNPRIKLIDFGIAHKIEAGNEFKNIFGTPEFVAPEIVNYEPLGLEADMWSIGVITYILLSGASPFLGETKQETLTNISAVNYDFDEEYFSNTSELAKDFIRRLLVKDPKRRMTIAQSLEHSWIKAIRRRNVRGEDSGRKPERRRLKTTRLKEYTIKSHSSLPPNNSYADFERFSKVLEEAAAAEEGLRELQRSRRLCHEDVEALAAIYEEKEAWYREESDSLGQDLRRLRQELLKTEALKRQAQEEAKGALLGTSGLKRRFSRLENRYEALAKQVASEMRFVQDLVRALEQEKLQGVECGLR
# Chain of 363 human kinases (including Aurora A/B/C) (Homo sapiens, UniProt Q6IQ55) (Q6IQ55 whole entry): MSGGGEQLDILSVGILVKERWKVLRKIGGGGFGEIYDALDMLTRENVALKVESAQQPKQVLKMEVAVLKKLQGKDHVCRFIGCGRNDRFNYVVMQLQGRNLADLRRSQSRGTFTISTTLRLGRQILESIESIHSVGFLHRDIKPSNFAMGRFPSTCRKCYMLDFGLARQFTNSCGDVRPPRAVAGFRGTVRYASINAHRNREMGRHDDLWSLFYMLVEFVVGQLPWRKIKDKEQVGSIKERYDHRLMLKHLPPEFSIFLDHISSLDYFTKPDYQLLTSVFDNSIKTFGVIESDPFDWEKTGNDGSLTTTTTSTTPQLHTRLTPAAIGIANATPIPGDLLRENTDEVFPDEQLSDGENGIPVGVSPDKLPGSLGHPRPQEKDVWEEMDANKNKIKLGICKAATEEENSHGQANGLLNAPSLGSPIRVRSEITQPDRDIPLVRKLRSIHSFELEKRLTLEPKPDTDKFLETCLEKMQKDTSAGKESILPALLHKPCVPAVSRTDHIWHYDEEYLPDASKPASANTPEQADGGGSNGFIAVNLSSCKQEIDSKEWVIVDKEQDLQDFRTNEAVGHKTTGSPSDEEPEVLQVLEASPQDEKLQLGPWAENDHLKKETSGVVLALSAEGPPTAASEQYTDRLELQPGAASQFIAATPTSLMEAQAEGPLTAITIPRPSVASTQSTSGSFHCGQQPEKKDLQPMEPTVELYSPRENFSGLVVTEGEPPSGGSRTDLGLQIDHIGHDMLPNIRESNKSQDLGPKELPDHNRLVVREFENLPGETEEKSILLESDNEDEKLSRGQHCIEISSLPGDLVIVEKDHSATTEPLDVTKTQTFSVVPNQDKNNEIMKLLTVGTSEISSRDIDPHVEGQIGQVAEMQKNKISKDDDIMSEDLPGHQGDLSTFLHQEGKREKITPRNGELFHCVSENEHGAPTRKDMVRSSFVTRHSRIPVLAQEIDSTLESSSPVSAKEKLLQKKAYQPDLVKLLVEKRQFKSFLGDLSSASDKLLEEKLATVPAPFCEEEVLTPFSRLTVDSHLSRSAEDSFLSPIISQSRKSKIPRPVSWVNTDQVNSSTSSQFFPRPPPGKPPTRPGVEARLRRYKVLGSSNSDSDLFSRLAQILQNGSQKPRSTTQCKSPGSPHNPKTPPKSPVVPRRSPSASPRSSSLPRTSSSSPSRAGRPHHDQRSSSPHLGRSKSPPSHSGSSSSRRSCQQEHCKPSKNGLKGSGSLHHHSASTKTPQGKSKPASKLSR
# Chain of 363 human kinases (including Aurora A/B/C) (Homo sapiens, UniProt Q86Z02) (Q86Z02 whole entry): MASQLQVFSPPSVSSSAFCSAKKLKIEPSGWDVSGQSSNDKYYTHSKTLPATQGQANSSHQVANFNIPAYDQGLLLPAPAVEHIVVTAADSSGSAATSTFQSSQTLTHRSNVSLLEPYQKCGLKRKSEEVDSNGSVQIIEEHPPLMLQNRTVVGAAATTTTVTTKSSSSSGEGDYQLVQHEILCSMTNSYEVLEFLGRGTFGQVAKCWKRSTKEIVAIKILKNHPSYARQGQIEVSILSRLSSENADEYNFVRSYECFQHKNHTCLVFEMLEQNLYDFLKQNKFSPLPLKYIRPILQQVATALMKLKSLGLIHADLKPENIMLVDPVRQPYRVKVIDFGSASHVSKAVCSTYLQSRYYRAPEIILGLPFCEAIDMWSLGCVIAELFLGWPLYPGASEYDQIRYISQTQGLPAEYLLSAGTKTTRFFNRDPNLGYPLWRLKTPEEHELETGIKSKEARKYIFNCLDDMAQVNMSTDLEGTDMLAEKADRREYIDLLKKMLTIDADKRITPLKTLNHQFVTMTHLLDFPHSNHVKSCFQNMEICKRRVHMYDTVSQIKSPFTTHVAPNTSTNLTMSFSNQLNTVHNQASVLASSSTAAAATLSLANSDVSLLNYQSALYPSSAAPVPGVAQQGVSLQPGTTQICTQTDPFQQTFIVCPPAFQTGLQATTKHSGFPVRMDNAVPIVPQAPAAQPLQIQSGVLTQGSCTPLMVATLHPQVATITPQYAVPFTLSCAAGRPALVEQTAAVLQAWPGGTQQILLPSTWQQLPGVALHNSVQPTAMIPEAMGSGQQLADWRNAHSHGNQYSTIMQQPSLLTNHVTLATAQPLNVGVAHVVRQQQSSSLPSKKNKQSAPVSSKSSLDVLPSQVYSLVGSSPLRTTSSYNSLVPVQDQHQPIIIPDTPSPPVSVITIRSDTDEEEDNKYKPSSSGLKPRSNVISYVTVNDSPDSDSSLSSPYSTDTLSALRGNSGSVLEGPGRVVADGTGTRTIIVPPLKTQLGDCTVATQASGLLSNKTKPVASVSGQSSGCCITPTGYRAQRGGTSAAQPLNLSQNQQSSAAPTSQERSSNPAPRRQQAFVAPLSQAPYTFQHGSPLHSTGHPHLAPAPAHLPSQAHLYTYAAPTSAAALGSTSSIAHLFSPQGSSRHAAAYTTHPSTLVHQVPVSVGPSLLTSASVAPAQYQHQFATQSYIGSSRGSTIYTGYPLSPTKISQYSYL
# Chain of 363 human kinases (including Aurora A/B/C) (Homo sapiens, UniProt P14616) (P14616 27-1297): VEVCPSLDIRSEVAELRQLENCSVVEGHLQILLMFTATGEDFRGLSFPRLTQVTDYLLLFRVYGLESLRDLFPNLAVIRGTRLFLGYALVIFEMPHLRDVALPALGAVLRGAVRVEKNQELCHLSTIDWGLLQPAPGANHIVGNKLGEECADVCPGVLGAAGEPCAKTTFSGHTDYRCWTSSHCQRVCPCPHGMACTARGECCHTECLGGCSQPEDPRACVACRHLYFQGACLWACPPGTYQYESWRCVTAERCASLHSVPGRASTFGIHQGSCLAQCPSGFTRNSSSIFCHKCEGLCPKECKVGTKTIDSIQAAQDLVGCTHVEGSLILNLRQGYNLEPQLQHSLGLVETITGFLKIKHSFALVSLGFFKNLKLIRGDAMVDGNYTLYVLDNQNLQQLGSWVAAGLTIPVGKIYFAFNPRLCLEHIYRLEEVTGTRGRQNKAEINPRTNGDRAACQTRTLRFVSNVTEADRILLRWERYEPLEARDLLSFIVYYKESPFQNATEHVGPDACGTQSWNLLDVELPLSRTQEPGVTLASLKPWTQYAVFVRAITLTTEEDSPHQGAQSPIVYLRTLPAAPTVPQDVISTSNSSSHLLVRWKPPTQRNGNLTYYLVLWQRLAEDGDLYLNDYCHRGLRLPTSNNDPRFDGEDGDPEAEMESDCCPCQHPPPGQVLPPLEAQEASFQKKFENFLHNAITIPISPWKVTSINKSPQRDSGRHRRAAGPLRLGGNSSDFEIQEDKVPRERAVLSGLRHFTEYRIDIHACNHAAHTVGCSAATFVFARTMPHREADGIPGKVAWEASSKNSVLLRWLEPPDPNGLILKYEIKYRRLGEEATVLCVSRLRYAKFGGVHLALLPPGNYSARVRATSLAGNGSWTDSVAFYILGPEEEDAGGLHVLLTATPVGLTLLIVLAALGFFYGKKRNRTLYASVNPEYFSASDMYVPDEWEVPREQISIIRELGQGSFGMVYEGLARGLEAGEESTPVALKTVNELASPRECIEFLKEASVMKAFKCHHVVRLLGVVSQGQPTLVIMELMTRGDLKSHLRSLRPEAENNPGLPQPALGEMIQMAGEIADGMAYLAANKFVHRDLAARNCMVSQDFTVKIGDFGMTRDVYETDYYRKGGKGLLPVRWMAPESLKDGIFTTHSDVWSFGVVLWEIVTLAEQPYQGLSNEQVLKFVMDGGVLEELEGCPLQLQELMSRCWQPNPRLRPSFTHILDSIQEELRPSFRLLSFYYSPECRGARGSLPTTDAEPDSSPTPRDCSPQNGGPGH
structure (smiles),measurement,setting,value
CCn1cc(-c2ccnc3[nH]c(-c4cccc(CN(C)C)c4)cc23)c(-c2ccc(NC(=O)N(C)C)cc2)n1 [GSK1070916],remaining activity at 0.1 µM,[1],97.8%
same,remaining activity at 0.1 µM,[2],85.4%
same,remaining activity at 0.1 µM,[3],113%
same,remaining activity at 0.1 µM,[4],99.2%
same,remaining activity at 0.1 µM,[5],103%
same,remaining activity at 0.1 µM,[6],119%
same,remaining activity at 0.1 µM,[7],99.9%
same,remaining activity at 0.1 µM,[8],90%
same,remaining activity at 0.1 µM,[9],95.3%
same,remaining activity at 0.1 µM,[10],92.5%
same,remaining activity at 0.1 µM,[11],91.4%
same,remaining activity at 0.1 µM,[12],105%
same,remaining activity at 0.1 µM,[13],99.5%
same,remaining activity at 0.1 µM,[14],103%
O=C(O)[C@]1(Cc2cccc(Nc3nccs3)n2)CC[C@@H](Oc2cccc(Cl)c2F)CC1 [MK-5108],remaining activity at 0.1 µM,[1],81.2%
same,remaining activity at 0.5 µM,[1]; 500 nM,82.2%
same,remaining activity at 0.1 µM,[2],102%
same,remaining activity at 0.5 µM,[2]; 500 nM,87.9%
same,remaining activity at 0.1 µM,[3],105%
same,remaining activity at 0.5 µM,[3]; 500 nM,116%
same,remaining activity at 0.1 µM,[4],96.7%
same,remaining activity at 0.5 µM,[4]; 500 nM,67.8%
same,remaining activity at 0.1 µM,[5],134%
same,remaining activity at 0.5 µM,[5]; 500 nM,115%
same,remaining activity at 0.1 µM,[6],99.8%
same,remaining activity at 0.5 µM,[6]; 500 nM,111%
same,remaining activity at 0.1 µM,[7],107%
same,remaining activity at 0.5 µM,[7]; 500 nM,78.1%
same,remaining activity at 0.1 µM,[8],96%
same,remaining activity at 0.5 µM,[8]; 500 nM,73.7%
same,remaining activity at 0.1 µM,[9],92.2%
same,remaining activity at 0.5 µM,[9]; 500 nM,93.6%
same,remaining activity at 0.1 µM,[10],79.6%
same,remaining activity at 0.5 µM,[10]; 500 nM,42.7%
same,remaining activity at 0.1 µM,[11],97.8%
same,remaining activity at 0.5 µM,[11]; 500 nM,92.6%
same,remaining activity at 0.1 µM,[12],116%
same,remaining activity at 0.5 µM,[12]; 500 nM,102%
same,remaining activity at 0.1 µM,[13],81.7%
same,remaining activity at 0.5 µM,[13]; 500 nM,46.3%
same,remaining activity at 0.1 µM,[14],101%
same,remaining activity at 0.5 µM,[14]; 500 nM,95.5%
O=C(c1cccc(Cl)c1F)N1CCN(Cc2cccc(Nc3nccs3)n2)CC1 [MK-8745],% Enzyme Activity (relative to DMSO controls),[1]; 500 nM,91.43%
same,remaining activity at 0.5 µM,[1]; 500 nM,91.6%
same,% Enzyme Activity (relative to DMSO controls),[2]; 500 nM,84.91%
same,remaining activity at 0.5 µM,[2]; 500 nM,85.3%
same,% Enzyme Activity (relative to DMSO controls),[3]; 500 nM,107.37%
same,remaining activity at 0.5 µM,[3]; 500 nM,107%
same,% Enzyme Activity (relative to DMSO controls),[4]; 500 nM,90.76%
same,remaining activity at 0.5 µM,[4]; 500 nM,90.8%
same,% Enzyme Activity (relative to DMSO controls),[5]; 500 nM,164.83%
same,remaining activity at 0.5 µM,[5]; 500 nM,166%
same,% Enzyme Activity (relative to DMSO controls),[6]; 500 nM,109.64%
same,remaining activity at 0.5 µM,[6]; 500 nM,110%
same,% Enzyme Activity (relative to DMSO controls),[7]; 500 nM,92.01%
same,remaining activity at 0.5 µM,[7]; 500 nM,103%
same,% Enzyme Activity (relative to DMSO controls),[8]; 500 nM,85.63%
same,remaining activity at 0.5 µM,[8]; 500 nM,86%
same,% Enzyme Activity (relative to DMSO controls),[9]; 500 nM,94.03%
same,remaining activity at 0.5 µM,[9]; 500 nM,94.7%
same,% Enzyme Activity (relative to DMSO controls),[10]; 500 nM,73.30%
same,remaining activity at 0.5 µM,[10]; 500 nM,76.7%
same,% Enzyme Activity (relative to DMSO controls),[11]; 500 nM,93.58%
same,remaining activity at 0.5 µM,[11]; 500 nM,95.5%
same,% Enzyme Activity (relative to DMSO controls),[12]; 500 nM,95.86%
same,remaining activity at 0.5 µM,[12]; 500 nM,97.4%
same,% Enzyme Activity (relative to DMSO controls),[13]; 500 nM,75.20%
same,remaining activity at 0.5 µM,[13]; 500 nM,76.4%
same,% Enzyme Activity (relative to DMSO controls),[14]; 500 nM,99.92%
same,remaining activity at 0.5 µM,[14]; 500 nM,101%
